Test results published in US9611286B2, “Ruthenium carbon monoxide releasing molecules and uses thereof” (Alfama, Inc., priority 2011, dated 2017).

Key:
[1] = Lung histology (hematoxylin and eosin) in M-AALI; type: in vivo; conditions: infected DBA/2 mice
Procedure: (§1) For evaluation of histological features, mice were deeply anesthetized until cessation of breathing when infected control mice presented signs of ECM or ALI. The livers, lungs, and brains were removed and fixed in 10% buffered formalin for 24-72 h. Four-micron sections were cut from paraffin-embedded tissues and stained with hematoxylin and eosin according to standard procedures. Histological analyses were performed on a Leica microscope DM 2500 (Leica Microsystems).

HO-1 = HO-1 mRNA expression by qRT-PCR in infected mice; type: in vivo, C57BL/6 mice; conditions: day 3 after infection
Procedure: (§2) Mice were sacrificed, when infected control mice presented signs of ECM, and perfused intracardially with PBS to remove circulating RBC and leukocytes from the organs. RNA was isolated from brains, livers and lungs using Trizol Reagent (Invitrogen, Life technologies), according to the manufacturer's recommendation. The synthesis of the first-strand cDNA from the RNA templates was carried out using the Transcriptor First Strand cDNA Synthesis Kit (Roche). RT-PCR reactions were performed in the presence of SYBER Green (SYBER Green PCR master mix, Applied Biosystems) on an ABI PRISM 7500Fast (Applied Biosystem). Oligonucleotides used for the specific amplification of genes include:
(§3) The relative changes in gene expression between experimental and control groups were calculated by the Pfaffl method using hprt as internal control gene. Statistical Analysis

P. berghei ANKA = assay: Malaria-associated acute lung injury (M-AALI) model; type: in vivo, DBA/2 mice; conditions: i.v. twice daily between days 2 and 4 after infection
Source text: The M-AALI model, based on the infection of DBA-2 mice with P. berghei ANKA, is characterized by dyspnea, airway obstruction, hypoxemia, pulmonary exudate and elevated VEGF levels in plasma, followed by death between days 7 and 12 after infection.
Red blood cells infected with green fluorescent protein (GFP)-transgenic P. berghei ANKA and P. berghei ANKA was used to infect mice (see, e.g., Franke-Fayard et al. Mol Biochem Parasitol (2004) 137:23-33). Cryopreserved parasites were passed once through C57BL/6 or DBA-2 mice before being used to infect experimental animals. […] The infected mice were monitored daily for clinical symptoms of experimental cerebral malaria (ECM) including hemi- or paraplegia, head deviation, tendency to roll over on stimulation, ataxia and convulsions, or ALI, including dyspnea. […] Parasitemia was assessed by flow cytometry for mice infected with GFP-expressing P. berghei ANKA, using tail blood, as previously described (see, e.g., Pamplona et al., Nat Med (2007) 13:703-710). Mean parasitemia is expressed as percentage of infected red blood cells. For mice infected with non-GFP P. berghei parasitemia was assessed daily by microscopic counting of Giemsa-stained thin blood smears. Mean parasitemia is expressed as percentage of infected red blood cells. Survival is expressed as percentage. […]

P. berghei ANKA GFP = assay: Adjunctive/adjuvant therapy with artesunate after onset of ECM; type: in vivo, C57BL/6 mice; conditions: during administration of AS, between days 5 and 6
Procedure: Thus, the inventors decided to test Compound 1 as an adjunctive and adjuvant therapy during the acute phase of ECM. […] Therefore, the inventors assessed the combination of Compound 1 and AS on parasite clearance and clinical recovery from ECM. Two AS and Compound 1 combinations were tested: (i) Adjunctive therapy: AS and Compound 1 were administered concomitantly for 2 days after the onset of CM followed by a 3-day treatment with Compound 1 alone, or (ii) Adjuvant therapy: AS was administered on the first 2 days after CM onset followed by Compound 1 administration for 3 more days.
In order to evaluate the clinical presentation of experimental cerebral malaria, a classification was used in clinical stages from 0 to 4 (see, e.g., Bienvenu et al., Acta Trop (2008) 106:104-8; Franklin et al., Proc Natl Acad Sci USA (2011) 108:3689-94). Briefly, stage 0 indicates no detectable clinical symptoms, stage 1, ruffled fur; stage 2, ruffled fur and unbalancing; stage 3, limb paralysis and respiratory distress and stage 4, convulsions, coma or death. The mice were clinically classified before and after the treatment to evaluate the clinical recovery.
CORM-2 (Sigma-Aldrich) and Compound 2 were solubilized using 10% dimethyl sulfoxide (DMSO; Sigma-Aldrich) in PBS. CORM-3 and Compound 1 were solubilized in PBS (lx). CORM-2 solution (20 mg/kg of body weight) was administered intravenously (i.v.) according to the chosen schedules. […] As vehicle control, we used a solution of 10% DMSO in PBS administered i.v. The concentrations of CORM-2 used in the present study were based on previous reports (see, e.g., Chen et al. Am. J. Pathol. (2009) 175:422-429; Sun et al., World. J. Gastroenterol. (2008) 14:547-553). Artesunate is presented as a powder of artesunic acid. Artesunate (AS) solution was prepared by dissolving 60 mg of anhydrous artesunic acid in 1 ml of sodium bicarbonate (5%) to form sodium artesunate and then diluted in 5 ml of NaCl (0.9%). An AS solution (i.p.) was administered at 40 mg/Kg/day, as described previously (see, e.g., Bienvenu, Acta Trop (2008) 106:104-108). The AS treatment was started when the infected non-treated mice presented the clinical stage 1 for experimental cerebral malaria.

[2] = Quantification of COHb in peripheral blood; type: in vivo, C57BL/6 mice; conditions: infected mice, day 3 after infection
Procedure: Blood was collected from the tail of the mice to capillary tubes (VWR) with heparin (100 i.u./ml in PBS 1×; LEO Pharma Inc.), transferred into AVOXimeter 4000 cuvettes (ITC) where the levels of carboxyhemoglobin (COHb), oxyhemoglobin (02Hb) and methemoglobin (MetHb) were measured in a portable AVOXimeter 4000 CO-oximeter (ITC). Results are shown as mean percentage of total hemoglobin species in circulation.

P. falciparum 3D7 = assay: In vitro replication of P. falciparum 3D7; type: cell-based, Plasmodium falciparum; conditions: 48 h
Procedure: The data led the inventors to wonder whether Compound 1 could have a direct anti-parasitic effect on P. berghei ANKA and P. falciparum parasites. To this end, the effect of Compound 1 and the anti-malarial chloroquine (CQ) was monitored on the in vitro replication of P. falciparum 3D7 isolate and P. berghei ANKA for 48 h and 24 h, respectively.

[3] = test system: Myoglobin (Mb) from equine skeletal muscle; assay: Deoxy-myoglobin (Mb) carbonylation assay, CO release; type: biochemical; conditions: after 15 minutes of incubation with deoxy-Mb, PBS pH 7.4
Procedure: The CO donation capacity of Compound 1 by a deoxy-myoglobin (Mb) carbonylation assay was then evaluated (see, e.g., Clark et al., Am J Pathol (1992) 140:325-336).
The Mb assay was performed as described in Clark et al., Circ. Res. (2003) 93:2-8. A stock solution of Myoglobin (Mb) from equine skeletal muscle was prepared by dissolving the protein in PBS7.4. From this solution aliquots were taken to a cuvette (final concentration between ca. 60 μM) and Na2S2O4 in PBS, pH 7.4 (10 mg/mL solution; 0.1% final concentration) was added to convert met-Mb into deoxy-Mb. The reactions were done by mixing in the same cuvette and by this order, the Mb stock solution, the Na2S2O4 solution, a calculated amount of a solution of Compound I and adding PBS to obtain the desired final volume. […] Two controls were done in duplicate, the negative control (0% CO-Mb), a deoxy-Mb solution and the positive control (100% CO-Mb), obtained by bubbling pure CO gas into the deoxy-Mb solution for 10-15 min. The experimental spectrum was fitted as a weighted sum of the deoxy-Mb and the CO-Mb spectra. […] The absorbance spectrum was converted into a percentage of CO-Mb and the amount of CO liberated was calculated as molar equivalents of CO based on the initial concentration of Compound I (see FIG. 10).

[4] = Brain histology (hematoxylin and eosin) in ECM; type: in vivo, C57BL/6 mice; conditions: P. berghei ANKA-infected mice
Procedure: as §1

IFN-γ = IFN-γ mRNA expression in brain by qRT-PCR; type: in vivo, C57BL/6 mice
Procedure: as §2, §3

[5] = BBB disruption by Evans blue accumulation in brain parenchyma; type: in vivo, C57BL/6 mice; conditions: when control mice showed signs of ECM

Structure (SMILES): C[SH]([C@@H]1OC(CO)[C@H](O)[C@H](O)C1O)[Ru]([Cl])([Cl])([CH]=O)([CH]=O)[CH]=O (stereo partly shown) [Compound 1, Tricarbonyldichloro(methylthiogalactopyranoside) Ru(II)]
- vascular congestion with pRBCs in lung tissue [1]: major differences in the vascular congestion with pRBCs
- HO-1 mRNA expression in brain vs non-infected and Compound 2-treated mice (HO-1): not significantly different
- mice that developed M-AALI (P. berghei ANKA): None
- interference with the anti-malarial action of AS (P. berghei ANKA GFP): did not interfere with the anti-malarial action of AS in vivo
- COHb levels in the blood [2]: without causing measurable increase in COHb levels
- inhibition of in vitro growth (P. falciparum 3D7): does not inhibit in vitro growth
- CO transferred to Mb [3]: approximately 1 equivalent of CO
- neuropathologic features in brain sections [4]: less hemorrhages, and the vessels had lower accumulation of pRBC and leukocytes
- IFN-γ mRNA expression vs infected Compound 2-treated mice (IFN-γ): reduced
- BBB disruption [5]: did not show any evidence of BBB disruption
